Tested on: Glucose-6-phosphat-Dehydrogenase
Test: Conversion of different hexoses by glucose-6-phosphate dehydrogenase in the presence of NADP+ (photometric)
Type: biochemical
Details: Hexose 50 mmol/l, G6P-DH 10 U/ml, NADP+ added, 37 °C, 340 nm, ca. 40 min, Imidazol·HCl pH 6,6
Protocol: Beispiel 1: Umsetzung verschiedener Hexosen mit Glucose-6-phosphat-Dehydrogenase in Gegenwart von NADP^+
Testansatz: Es wurden in einer Küvette mit einer Schichtdicke von 1 cm jeweils 1,0 ml Reagenz A mit 0,1 ml Reagenz B vermischt und mit einem Spektralphotometer bei 37 °C und 340 nm der Extinktionsverlauf über ca. 40 min verfolgt.

Row | Compound | NADPH-Bildung (Extinktionsverlauf)
1 | Mannose | keine Extinktionsveränderung meßbar
2 | O=C(CO)[C@@H](O)[C@H](O)[C@H](O)CO [Fructose] | keine Extinktionsveränderung meßbar
3 | Glucose [reference compound] | signifikante NADPH-Bildung

Reference: patent EP0913483A2, “Method and reagent for the determination of creatine kinase” (Roche Diagnostics GmbH, priority 1997, dated 1999)
